# According to ChEMBL document CHEMBL6092216, “Development of α-Helical Antimicrobial Peptides with Imperfect Amphipathicity for Superior Activity and Selectivity” (J Med Chem, 2024):
# Active and inactive are the calls of the source. The calls are words filed in the database; no cut-off is given here.
# Experiments:
# Escherichia coli [1] = test: Antibacterial activity against Escherichia coli 5017 assessed as inhibition of bacterial growth incubated for 24 hrs by tube microdilution assay; format: functional
# Staphylococcus aureus [2] = test: Antibacterial activity against methicillin-resistant Staphylococcus aureus 42 assessed as inhibition of bacterial growth incubated for 24 hrs by tube microdilution assay; format: functional
# Acinetobacter baumannii [3] = test: Antipersister-activity against Acinetobacter baumannii ATCC 19606 assessed as elimination of persister cells preincubated adherent persistent cells with colistin for 24 hrs followed by incubation with drug for 12 hrs; format: functional, organism-based
# Acinetobacter baumannii [4] = test: Antibacterial activity against Acinetobacter baumannii ATCC 19606 infected in BALB/c mouse assessed as inhibition of bacterial colonization on wounded skin at 0.1 to 2 mg/ml applied on skin and measured after 2 hrs; format: functional, organism-based; conditions: dose 0.1-2 mg/ml
# Staphylococcus aureus [5] = test: Antibacterial activity against Staphylococcus aureus 157752 assessed as inhibition of bacterial growth incubated for 24 hrs by tube microdilution assay; format: functional
# HaCaT = test: Cytotoxicity against human HaCaT cells assessed as effect on cell viability at 3.13 to 400 ug/ml incubated for 24 hrs by CCK-8 assay; format: toxicity, cell-based; conditions: dose 3.13-400 µg/ml
# Pseudomonas aeruginosa [6] = test: Antibacterial activity against Pseudomonas aeruginosa 60357 assessed as inhibition of bacterial growth incubated for 24 hrs by tube microdilution assay; format: functional
# Staphylococcus aureus [7] = test: Antibiofilm activity against Staphylococcus aureus ATCC 6538 assessed as inhibition of biofilm formation at 1X to 10XMIC incubated for 24 hrs by crystal violet staining based analysis; format: functional, organism-based
# Staphylococcus aureus [8] = test: Bactericidal activity against Staphylococcus aureus ATCC 6538 assessed as bacterial cell killing measured after 35 passages; format: functional, organism-based
# Pseudomonas aeruginosa [9] = test: Antibacterial activity against Pseudomonas aeruginosa 17068 assessed as inhibition of bacterial growth incubated for 24 hrs by tube microdilution assay; format: functional
# Acinetobacter baumannii [10] = test: Antibacterial activity against Acinetobacter baumannii ATCC 19606 assessed as inhibition of bacterial growth by tube microdilution assay; format: functional
# HEK-293T = test: Cytotoxicity against HEK293T cells assessed as effect on cell viability at 3.13 to 400 ug/ml incubated for 24 hrs by CCK-8 assay; format: toxicity, cell-based; conditions: human, dose 3.13-400 µg/ml
# Staphylococcus aureus [11] = test: Antibacterial activity against Staphylococcus aureus 15772 assessed as inhibition of bacterial growth incubated for 24 hrs by tube microdilution assay; format: functional
# Staphylococcus aureus [12] = test: Antibacterial activity against methicillin-resistant Staphylococcus aureus 51 assessed as inhibition of bacterial growth incubated for 24 hrs by tube microdilution assay; format: functional
# Staphylococcus aureus [13] = test: Antibacterial activity against methicillin-resistant Staphylococcus aureus 11 assessed as inhibition of bacterial growth incubated for 24 hrs by tube microdilution assay; format: functional
# Staphylococcus aureus [14] = test: Antibacterial activity against Staphylococcus aureus ATCC 6538 infected in BALB/c mouse assessed as inhibition of bacterial colonization on wounded skin at 0.5 mg/ml applied on skin and measured after 2 hrs relative to control; format: functional
# Escherichia coli [15] = test: Antibacterial activity against Escherichia coli 1007 assessed as inhibition of bacterial growth incubated for 24 hrs by tube microdilution assay; format: functional
# Pseudomonas aeruginosa [16] = test: Bactericidal activity against Pseudomonas aeruginosa ATCC 27853 assessed as elimination of bacterial cells at 5XMIC measured within 1 hr by killing kinetic assay; format: functional
# Pseudomonas aeruginosa [17] = test: Bactericidal activity against Pseudomonas aeruginosa ATCC 27853 assessed as elimination of bacterial cells at 5X to 10XMIC measured within 3 hrs by killing kinetic assay; format: functional
# Acinetobacter baumannii [18] = test: Antibacterial activity against Acinetobacter baumannii 0357 assessed as inhibition of bacterial growth incubated for 24 hrs by tube microdilution assay; format: functional
substance,measurement,setting,value
H-RRGIKKFIKKVKKVKKAI-OH,MIC,Escherichia coli [1],9.37 µg/mL
same,MIC,Staphylococcus aureus [2],2.34 µg/mL
same,Activity,Acinetobacter baumannii [3],Dose-dependent-effect
same,Activity,Acinetobacter baumannii [4],"Dose-dependent-effect; Less Efficacy Compared To Colistin, Reflected By Reduced Efficacy After Plasma Treatment"
same,MIC,Staphylococcus aureus [5],2.34 µg/mL
same,Activity,HaCaT,Non-toxic
same,MIC,Pseudomonas aeruginosa [6],1.17 µg/mL
same,Activity,Staphylococcus aureus [7],Dose-dependent-effect
same,Activity,Staphylococcus aureus [8],Active
same,MIC,Pseudomonas aeruginosa [9],1.17 µg/mL
same,MIC,Acinetobacter baumannii [10],2.34 µg/mL
same,Activity,HEK-293T,Non-toxic
same,MIC,Staphylococcus aureus [11],2.34 µg/mL
same,MIC,Staphylococcus aureus [12],2.34 µg/mL
same,MIC,Staphylococcus aureus [13],2.34 µg/mL
same,inhibition in vivo at 500 µg/mL,Staphylococcus aureus [14],71.8%
same,MIC,Escherichia coli [15],9.37 µg/mL
same,Activity,Pseudomonas aeruginosa [16],96.6%
same,Activity,Pseudomonas aeruginosa [17],100%
same,MIC,Acinetobacter baumannii [18],2.34 µg/mL
